Laboratory results reported in ChEMBL document CHEMBL1201862, “PubChem BioAssay data set” (2004).
Calls of active or inactive are those of the source.

Columns and labels:
[1] = Trypanosoma cruzi growth suppression in host cells – NIH3T3 host cells, beta-gal luminescence, confirmation (AID 2044); assay type: functional, cell-based;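 note: intracellular parasites grown in NIH/3T3 mouse fibroblasts as host cells; luminescent beta-galactosidase reporter signal from transgenic T. cruzi replicating inside host cells; inhibitors lower the luminescence signal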
[2] = NIH3T3 cell viability loss – ATP luminescence, mouse fibroblasts, counter-screen, dose response (AID 2010); assay type: functional, cell-based;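 note: cells exposed to compound for about 90 hours before reading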
cells [3] = assay: cells
[4] = THP-1 cell cytotoxicity, dose response, cytotoxicity control for non-replicating M. tuberculosis project (AID 489025); assay type: functional
[5] = Vero E6 cell cytotoxicity, dose response, cytotoxicity control for non-replicating M. tuberculosis project, secondary assay (AID 492998); assay type: functional, VeroE6; conditions: Vero C1008
cells [6] = assay type: functional
INS1 = assay: INS-1E survival protection against cytokine death – cell-based, luminescence, retest, dose response (AID 449756); assay type: functional; conditions: Rattus norvegicus;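 note: cell death triggered by IL-1 beta plus TNF-alpha plus IFN-gamma mixture; protective hits raise ATP signal compared with cytokine alone wells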
[7] = target: T1, Mannose-6-phosphate isomerase (Homo sapiens, UniProt P34949); assay: MPI enzyme activity inhibition – biochemical, fluorescence intensity, coupled assay, primary screen (AID 1209)
T1 sequence (P34949 whole entry): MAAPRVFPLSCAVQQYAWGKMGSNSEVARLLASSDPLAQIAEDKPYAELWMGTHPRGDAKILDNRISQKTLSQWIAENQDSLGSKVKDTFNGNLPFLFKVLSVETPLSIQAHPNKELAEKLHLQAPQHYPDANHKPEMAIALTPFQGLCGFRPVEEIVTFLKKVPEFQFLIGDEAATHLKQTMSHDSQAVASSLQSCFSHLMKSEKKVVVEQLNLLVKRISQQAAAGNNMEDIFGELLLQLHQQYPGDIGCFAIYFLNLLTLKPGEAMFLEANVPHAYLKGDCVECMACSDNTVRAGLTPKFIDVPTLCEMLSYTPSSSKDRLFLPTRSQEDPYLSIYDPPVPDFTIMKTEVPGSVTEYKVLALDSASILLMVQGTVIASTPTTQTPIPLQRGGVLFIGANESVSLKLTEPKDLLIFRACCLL

[8] = target: T1, Mannose-6-phosphate isomerase; assay: MPI inhibition at elevated mannose 6-phosphate – biochemical, fluorescence intensity, high mannose 6-phosphate, primary screen (AID 1220)
SUMO-activating enzyme [9] = target: T2, SUMO-activating enzyme (Homo sapiens, UniProt Q9UBT2); assay: blockers of UBC9-mediated SUMO conjugation – biochemical, AlphaScreen, SUMOylation inhibitor project, confirmation (AID 2018); assay type: functional
T2 sequence (Q9UBE0 whole entry): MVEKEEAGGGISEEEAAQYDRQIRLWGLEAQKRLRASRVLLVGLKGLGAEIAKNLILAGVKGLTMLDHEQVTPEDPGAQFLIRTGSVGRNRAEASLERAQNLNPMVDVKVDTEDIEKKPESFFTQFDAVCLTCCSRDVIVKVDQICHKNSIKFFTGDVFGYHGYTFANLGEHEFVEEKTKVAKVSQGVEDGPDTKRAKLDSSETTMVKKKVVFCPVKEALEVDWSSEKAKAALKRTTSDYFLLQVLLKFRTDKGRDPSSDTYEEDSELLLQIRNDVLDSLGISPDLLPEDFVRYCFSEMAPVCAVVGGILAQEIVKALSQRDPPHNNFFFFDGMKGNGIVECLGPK
T2 sequence (Q9UBT2 whole entry): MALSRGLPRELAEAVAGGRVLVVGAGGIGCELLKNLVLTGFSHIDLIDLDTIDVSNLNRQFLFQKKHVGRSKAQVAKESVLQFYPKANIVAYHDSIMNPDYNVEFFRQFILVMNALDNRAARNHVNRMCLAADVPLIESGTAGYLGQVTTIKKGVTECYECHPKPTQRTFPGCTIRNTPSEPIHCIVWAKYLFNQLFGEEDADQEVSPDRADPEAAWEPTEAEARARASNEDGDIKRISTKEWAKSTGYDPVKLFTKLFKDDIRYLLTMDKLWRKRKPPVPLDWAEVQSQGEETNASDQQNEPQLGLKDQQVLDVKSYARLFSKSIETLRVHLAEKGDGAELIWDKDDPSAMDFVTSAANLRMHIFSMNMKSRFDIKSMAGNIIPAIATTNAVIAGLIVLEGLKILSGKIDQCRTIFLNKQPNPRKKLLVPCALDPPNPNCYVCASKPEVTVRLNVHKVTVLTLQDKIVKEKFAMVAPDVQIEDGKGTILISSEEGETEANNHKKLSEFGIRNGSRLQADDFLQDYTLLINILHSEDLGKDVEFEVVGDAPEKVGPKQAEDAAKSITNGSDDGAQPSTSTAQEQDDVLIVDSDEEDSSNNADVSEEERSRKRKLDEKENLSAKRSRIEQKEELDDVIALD

SUMO-activating enzyme [10] = target: T2, SUMO-activating enzyme; assay: blockers of SAE1/SAE2–UBC9 SUMO transfer – biochemical, HTRF, uHTS, primary screen (AID 2006); assay type: protein-complex assay
[11] = target: Protein-tyrosine kinase 2-beta (Homo sapiens, UniProt Q14289);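 note: potency of inhibitors of PYK2 kinase phosphorylation of poly-GT substrate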
Chain of Protein-tyrosine kinase 2-beta (Q14289 whole entry, the tested form may be a part): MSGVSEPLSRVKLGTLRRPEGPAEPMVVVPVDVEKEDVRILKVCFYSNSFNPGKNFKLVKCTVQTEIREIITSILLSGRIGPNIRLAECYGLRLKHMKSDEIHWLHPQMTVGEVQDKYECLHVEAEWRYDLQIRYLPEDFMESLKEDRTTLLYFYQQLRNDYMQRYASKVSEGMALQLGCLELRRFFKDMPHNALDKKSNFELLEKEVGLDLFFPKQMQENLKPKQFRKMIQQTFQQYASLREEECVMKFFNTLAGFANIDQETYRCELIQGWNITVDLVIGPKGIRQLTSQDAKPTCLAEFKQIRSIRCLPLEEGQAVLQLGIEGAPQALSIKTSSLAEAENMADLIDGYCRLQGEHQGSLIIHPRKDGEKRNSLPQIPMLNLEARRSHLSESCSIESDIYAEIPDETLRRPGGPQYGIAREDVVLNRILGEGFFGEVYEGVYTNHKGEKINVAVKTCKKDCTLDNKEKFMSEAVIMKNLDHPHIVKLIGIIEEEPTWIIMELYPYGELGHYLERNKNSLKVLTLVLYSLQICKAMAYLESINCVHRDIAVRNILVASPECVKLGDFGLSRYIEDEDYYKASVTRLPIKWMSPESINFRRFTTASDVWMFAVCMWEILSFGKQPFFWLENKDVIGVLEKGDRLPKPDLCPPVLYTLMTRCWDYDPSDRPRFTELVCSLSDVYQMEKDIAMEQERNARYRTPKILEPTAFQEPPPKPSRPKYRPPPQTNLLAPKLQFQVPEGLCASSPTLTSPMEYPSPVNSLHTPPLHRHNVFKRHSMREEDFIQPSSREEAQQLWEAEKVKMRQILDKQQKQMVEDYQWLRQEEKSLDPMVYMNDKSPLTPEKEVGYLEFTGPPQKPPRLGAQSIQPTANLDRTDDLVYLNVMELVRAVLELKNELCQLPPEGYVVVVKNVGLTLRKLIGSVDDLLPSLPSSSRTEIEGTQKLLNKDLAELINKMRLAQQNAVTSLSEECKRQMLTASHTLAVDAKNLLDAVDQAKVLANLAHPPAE

[12] = target: T3, Carboxy-terminal domain RNA polymerase II polypeptide A small phosphatase 1 (Homo sapiens, UniProt Q9GZU7); assay: CTDSP1 inhibitors, concentration-response, biochemical, absorbance readout, ultra-high-throughput screen actives (AID 540297); assay type: functional
T3 sequence (Q9GZU7 whole entry): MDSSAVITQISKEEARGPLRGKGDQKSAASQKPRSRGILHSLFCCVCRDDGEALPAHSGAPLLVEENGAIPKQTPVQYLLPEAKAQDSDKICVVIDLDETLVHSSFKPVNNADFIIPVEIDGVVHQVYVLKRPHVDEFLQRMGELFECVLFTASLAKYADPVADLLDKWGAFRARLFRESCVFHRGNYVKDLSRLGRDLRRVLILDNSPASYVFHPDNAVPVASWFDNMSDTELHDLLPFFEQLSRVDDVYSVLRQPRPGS

BJ [13] = assay: BJ-TERT fibroblast viability loss – cell-based, RAS-independent, luminescence, dose response (AID 1933); assay type: functional; conditions: Homo sapiens
[14] = target: T4, Heat shock factor protein 1 (Mus musculus, UniProt P38532); assay: decrease of HSF1-responsive luciferase luminescence – cell-based, NIH3T3, dose retest, confirmation (AID 2382); assay type: functional;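 note: NIH3T3 fibroblasts with HSF1-driven luciferase reporter stressed by proteasome inhibitor MG132; luminescence from HSF1-driven luciferase expression after 8 hours of MG132 stress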
T4 sequence (P38532 whole entry): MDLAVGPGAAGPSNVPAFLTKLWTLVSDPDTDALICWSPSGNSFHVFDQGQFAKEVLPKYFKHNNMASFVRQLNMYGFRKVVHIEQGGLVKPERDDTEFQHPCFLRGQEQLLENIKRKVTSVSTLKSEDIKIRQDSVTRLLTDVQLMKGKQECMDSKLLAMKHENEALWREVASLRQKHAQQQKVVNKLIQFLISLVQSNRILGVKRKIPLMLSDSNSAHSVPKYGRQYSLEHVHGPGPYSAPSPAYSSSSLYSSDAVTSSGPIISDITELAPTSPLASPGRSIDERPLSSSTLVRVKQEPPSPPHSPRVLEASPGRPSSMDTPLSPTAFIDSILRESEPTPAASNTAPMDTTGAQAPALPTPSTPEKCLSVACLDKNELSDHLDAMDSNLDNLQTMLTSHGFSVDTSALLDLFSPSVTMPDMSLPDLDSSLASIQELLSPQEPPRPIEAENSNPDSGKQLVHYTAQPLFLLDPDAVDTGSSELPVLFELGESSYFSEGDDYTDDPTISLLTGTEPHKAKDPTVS

BJ [15] = assay: cells; assay type: functional, cell-based; conditions: Homo sapiens
[16] = target: T5, Sphingosine 1-phosphate receptor 4 (Homo sapiens, UniProt O95977); assay: Fluorescence dose response cell-based high throughput screening assay for antagonists of the Sphingosine 1-Phosphate Receptor 4 (S1P4). [Related pubchem assays: 1524 (Confirmation in triplicates.), 1510 (Primary screen.)]; assay type: functional
T5 sequence (O95977 whole entry): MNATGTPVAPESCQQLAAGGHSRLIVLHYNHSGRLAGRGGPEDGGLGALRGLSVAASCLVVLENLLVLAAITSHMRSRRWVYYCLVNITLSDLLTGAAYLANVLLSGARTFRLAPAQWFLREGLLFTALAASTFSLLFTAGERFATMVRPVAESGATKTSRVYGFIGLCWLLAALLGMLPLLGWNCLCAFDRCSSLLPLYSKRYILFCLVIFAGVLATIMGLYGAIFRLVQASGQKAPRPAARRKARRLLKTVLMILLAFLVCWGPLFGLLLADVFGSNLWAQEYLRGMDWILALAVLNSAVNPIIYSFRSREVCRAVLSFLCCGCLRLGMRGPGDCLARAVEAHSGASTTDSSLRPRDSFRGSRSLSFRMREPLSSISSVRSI

BJ [17] = assay: BJ-TERT-LT-ST fibroblast viability loss – cell-based, RAS-independent, luminescence, dose response (AID 1935); assay type: functional; conditions: Homo sapiens;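 note: BJ fibroblasts immortalized with TERT plus LT and ST oncogenes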
[18] = DRD fibroblast viability loss – cell-based, non-viral oncogenic, luminescence, dose response (AID 1934); assay type: functional; conditions: Homo sapiens
[19] = target: Sphingosine 1-phosphate receptor 1 (Homo sapiens, UniProt P21453); assay type: functional;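 note: Tango beta-arrestin reporter U2OS cells stimulated with S1P near its EC80; inhibitor potency meaning antagonism of receptor activation by the natural agonist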
Chain of Sphingosine 1-phosphate receptor 1 (P21453 whole entry): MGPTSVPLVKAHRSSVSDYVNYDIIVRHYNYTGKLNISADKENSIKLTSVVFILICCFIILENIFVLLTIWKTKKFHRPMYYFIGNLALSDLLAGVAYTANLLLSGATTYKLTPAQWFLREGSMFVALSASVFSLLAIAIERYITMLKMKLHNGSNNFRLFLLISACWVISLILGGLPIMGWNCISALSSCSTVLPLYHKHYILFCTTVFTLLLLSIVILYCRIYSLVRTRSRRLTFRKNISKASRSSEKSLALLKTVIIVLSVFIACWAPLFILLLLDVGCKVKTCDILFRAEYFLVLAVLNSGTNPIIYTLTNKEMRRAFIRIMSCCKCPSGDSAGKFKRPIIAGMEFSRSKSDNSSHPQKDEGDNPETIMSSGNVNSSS

[20] = HEK-293T viability loss after treatment – luminescence, T-cell screen hits, cytotoxicity control for TCR NF-kB inhibitor project, dose response (AID 489026); assay type: functional, cell-based;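 note: cells exposed to compound about 14 hours before the viability readout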
BJ [21] = assay: growth inhibition of engineered Ras-driven BJ cells – cell-based, alamar blue fluorescence, cherrypicked samples, dose response (AID 2631); assay type: functional; conditions: Homo sapiens;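 note: confirmatory dose-response assay in RAS-dependent BJ fibroblasts engineered with TERT, LT and ST, with cytotoxicity read by fluorescence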
[22] = A cytotoxicity screen of small molecule inhibitors of the PhoP region in Salmonella typhi identified in the primary screen. [Related pubchem assays: 1850, 1864, 1985 ]; assay type: functional
[23] = viability inhibitors of stage V gametocytes – luminescence, dose response (AID 1117278); assay type: functional, cell-based;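 note: gametocytes exposed to compound for 24 hours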
[24] = viability loss in human Jurkat cells – cell-based, luminescence, cytotoxicity control for P. falciparum gametocyte viability project, dose response (AID 1117277); assay type: functional;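 note: potency reflects loss of cellular ATP meaning fewer viable cells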
Estrogen receptor beta [25] = target: T6, Estrogen receptor beta (Homo sapiens, UniProt Q92731);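 note: recombinant ER-beta bound to coactivator SRC1 peptide in presence of estradiol agonist; inhibitors block coactivator peptide binding and lower the FRET signal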
T6 sequence (Q92731 whole entry): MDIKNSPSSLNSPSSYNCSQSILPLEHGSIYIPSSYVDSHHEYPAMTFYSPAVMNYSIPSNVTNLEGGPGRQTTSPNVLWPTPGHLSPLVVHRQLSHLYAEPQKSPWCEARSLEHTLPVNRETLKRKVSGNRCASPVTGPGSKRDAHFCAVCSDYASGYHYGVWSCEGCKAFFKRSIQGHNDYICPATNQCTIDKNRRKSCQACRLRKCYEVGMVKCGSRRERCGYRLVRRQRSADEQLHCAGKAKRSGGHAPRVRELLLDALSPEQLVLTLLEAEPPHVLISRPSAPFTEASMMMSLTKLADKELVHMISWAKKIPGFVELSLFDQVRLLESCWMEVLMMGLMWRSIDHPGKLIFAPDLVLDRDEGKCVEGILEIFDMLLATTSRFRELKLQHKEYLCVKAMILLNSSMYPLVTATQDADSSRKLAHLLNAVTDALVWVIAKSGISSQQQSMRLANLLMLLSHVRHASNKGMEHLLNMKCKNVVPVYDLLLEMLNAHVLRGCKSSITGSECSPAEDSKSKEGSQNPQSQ

Estrogen receptor beta [26] = target: T6, Estrogen receptor beta; assay: blockers of SRC-3 recruitment to ERβ – biochemical, ELISA, streptavidin-HRP readout, orthogonal assay, confirmation (AID 1060)
[27] = target: T7, Microphthalmia-associated transcription factor (Homo sapiens, UniProt O75030); assay: reducers of TRPM1 reporter luminescence, concentration series – cell-based, SK-MEL-5, cherry-picked, set 3, MITF inhibitor project, dose response (AID 493073); assay type: functional;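 note: SK-MEL-5 melanoma cells with luciferase driven by the MITF target TRPM1 promoter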
T7 sequence (O75030 whole entry): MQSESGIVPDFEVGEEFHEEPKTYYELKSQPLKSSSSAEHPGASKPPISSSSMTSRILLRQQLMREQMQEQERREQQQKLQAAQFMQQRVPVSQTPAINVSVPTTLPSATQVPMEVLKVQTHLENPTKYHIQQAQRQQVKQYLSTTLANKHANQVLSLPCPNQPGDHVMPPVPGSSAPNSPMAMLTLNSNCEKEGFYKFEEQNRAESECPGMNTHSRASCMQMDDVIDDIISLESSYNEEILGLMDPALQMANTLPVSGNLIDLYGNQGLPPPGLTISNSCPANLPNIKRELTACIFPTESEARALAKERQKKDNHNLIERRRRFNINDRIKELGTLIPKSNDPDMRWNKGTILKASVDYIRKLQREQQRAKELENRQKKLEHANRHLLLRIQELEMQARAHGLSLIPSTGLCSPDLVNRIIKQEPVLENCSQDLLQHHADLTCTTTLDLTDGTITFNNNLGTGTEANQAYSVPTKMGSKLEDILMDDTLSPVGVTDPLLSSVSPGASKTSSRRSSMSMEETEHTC

Bcl-2-like protein 10 = target: T8, Bcl-2-like protein 10 (Homo sapiens, UniProt Q9HD36); assay: Bcl-B/TR3 peptide binding disruption – biochemical, fluorescence polarization, FITC-TR3 peptide, selectivity assay for Bfl-1 inhibitor project, primary screen (AID 748);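 note: fluorescence polarization from a fluorescein-labelled TR3 peptide binding purified Bcl-B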
T8 sequence (Q9HD36 whole entry): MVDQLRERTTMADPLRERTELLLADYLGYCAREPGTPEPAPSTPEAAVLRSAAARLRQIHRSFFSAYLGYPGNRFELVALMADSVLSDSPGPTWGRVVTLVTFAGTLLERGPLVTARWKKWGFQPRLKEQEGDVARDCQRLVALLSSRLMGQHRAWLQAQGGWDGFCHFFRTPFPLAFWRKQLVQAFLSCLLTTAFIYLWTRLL

[28] = target: Voltage-dependent T-type calcium channel subunit alpha-1H (Homo sapiens, UniProt O95180); assay type: functional;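 note: channel activity triggered by adding a high calcium stimulation buffer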

## O=C(CCC1CCCN(Cc2ccc(O)c(Cl)c2)C1)NCc1ccccc1F (centres undefined)
[1]
  EC50: < 0.1 µM (active)
[2]
  EC50: > 60 µM (not active)
Cells [3]
  EC50: 0.077 µM (active)

## CCN1CCN(c2ccc(S(=O)(=O)N3CCCCC3)cc2NC(=O)c2ccc([N+](=O)[O-])s2)CC1
[1]
  EC50: < 0.1 µM (active)
[2]
  EC50: 6.56 µM (active)
[4]
  CC50: 10.5 µM (active)
[5]
  CC50: 8.95 µM (active)
Cells [6]
  IC50: 7.51 µM (active)
INS1
  AC50: 3.46 µM (active)
Cells [3]
  EC50: 0.052 µM (active)

## N#Cc1c(NCCO)nc(NCc2ccccc2)c2c1CCN(Cc1ccccc1)C2
[7]
  IC50: > 50 µM (not active)
[8]
  IC50: > 50 µM (not active)

## Cn1c2ccccc2c(=O)n2c(=O)c3ccccc3cc12
SUMO-activating enzyme [9]
  IC50: 3.28 µM (active)
SUMO-activating enzyme [10]
  IC50: 10.9 µM (active)
[11]
  IC50: > 69.5 µM (not active)

## O=C(N/N=C/c1ccc2ccccc2c1)c1ccc(COc2ccc3c(c2)CCC3)o1
[11]
  IC50: > 69.5 µM (not active)
[12]
  IC50: 3.24 µM (active)

## O=S1(=O)C=C(Sc2nc3ccccc3s2)c2ccccc21
BJ [13]
  EC50: 1.23 µM (active)
[14]
  EC50: 3.93 µM (inconclusive)
BJ [15]
  EC50: 6.14 µM (inconclusive)
[16]
  IC50: 0.474 µM (active)
BJ [17]
  EC50: 1.73 µM (inconclusive)
[18]
  EC50: 3.3 µM (active)
[19]
  IC50: 12.6 µM (not active)
[20]
  IC50: 60.3 µM (inactive)
BJ [21]
  EC50: 0.13 µM (active)
INS1
  AC50: 3.36 µM (active)

## CCOc1ccc(NC(=O)CN(C)C(=O)c2ccccc2CCc2ccccc2)cc1OCC
[22]
  EC50: > 50 µM (active)

## Cc1cc(C(=O)NCCC2=CCCCC2)no1
[23]
  IC50: > 109 µM (inactive)
[24]
  IC50: > 83.3 µM (inactive)

## Cc1ccc(-c2onc3ccc(C=O)cc23)cc1
[11]
  IC50: 30.1 µM (not active)

## O=C(Nc1cccc2cccc(NC(=O)c3ccco3)c12)c1ccco1
Estrogen receptor beta [25]
  IC50: 15.5 µM (active)
Estrogen receptor beta [26]
  IC50: > 50 µM (not active)

## CC(=O)Cn1ncc(Br)c(Br)c1=O
[14]
  EC50: 12.4 µM (active)
[1]
  EC50: 1.24 µM (active)
[2]
  EC50: 0.976 µM (active)
[16]
  IC50: 4.22 µM (active)
[19]
  IC50: 16.6 µM (not active)
[27]
  AC50: 15.8 µM (active)

## COc1ccccc1-c1nnc2sc(-c3cnccn3)nn12
Bcl-2-like protein 10
  IC50: 28.5 µM (active)
Estrogen receptor beta [25]
  IC50: 4.15 µM (active)
[12]
  IC50: 9.06 µM (active)

## CN1CCN(CC(=O)Nc2sc3c(c2C#N)CCC3)CC1
Estrogen receptor beta [26]
  IC50: > 50 µM (not active)

## CCCn1nnc(NC(=O)c2ccc(-c3cccc(Cl)c3)o2)n1
[28]
  EC50: 6.81 µM (active)
[23]
  IC50: > 109 µM (inactive)
[24]
  IC50: > 83.4 µM (inactive)

## CCOC(=O)CNCCC(=O)c1ccc(Br)cc1
[7]
  IC50: > 50 µM (not active)
[8]
  IC50: > 50 µM (not active)
Cells [6]
  IC50: 20.4 µM (active)
